From patent publication US20250236616A1, “IMMUNOMODULATING AZALIDES” (Zoetis Services LLC, priority 2021, published 2025)

Assays:
[1] = tested on: IL-6; experiment: IL-6 biomarker in bovine M. haemolytica challenge; assay type: in vivo
Method: Cytokine Detection—An MSD U-Plex cytokine assay was developed following the MSD U-Plex protocol guide and included biotinylated capture antibodies against: bovine Interleukin (IL)-1β (Biorad), bovine IL-6 (R&D Systems) and bovine tumor necrosis factor (TNF)-α (R&D Systems). The anti-IL-1β antibody was biotinylated using EZ-Link Sulfo-NHS-Biotin (Thermo Scientific) at a challenge ratio of 1:20 according to manufacturer instructions. Assay calibrators (Kingfisher) were diluted to a concentration of […] in control lithium heparin plasma, followed by 4-fold serial dilutions into plasma. The detection antibodies were sulfo-tagged following the MSD quick guide conjugation protocol using a challenge ratio of 1:20. Antibodies were used at the following concentrations: anti-IL-1β at 1 μg/mL, anti-IL-6 at 1 μg/mL and anti-TNF-α at 0.5 μg/mL. Cytokines were quantified according to manufacturer's instructions using a chemiluminescent readout. In brief, 0.5 mL of all biotinylated antibodies were diluted to 10 μg/mL with Diluent 100 and paired to their respective linkers by adding 750 μL of supplied Linker solution and incubated for 30 minutes followed by addition of Stop solution for another 30 minutes. […] Plates were washed a further three times before addition of 150 μL 2X Read buffer and read immediately on the SI6000 instrument (MSD). […]

[2] = tested on: H. somni; experiment: MIC, H. somni strains; assay type: cell-based; conditions: lung isolates at necropsy, natural BRD study, n=25
Description: Primary screening of the compounds of the invention included the evaluation of antibacterial activity of analogs through determination of microbial inhibition concentration (MIC) as per CLSI guidelines. The screening panel included the relevant BRD pathogens: 1) M. haemolytica (e.g., 12726, 46571 and 49023, all AHDRCC; and 33396 (ATCC)); and 2) P. multocida (e.g., 34135 and 46572 (both AHDRCC) and 43137 (ATCC)). In some instances, H. somni (A700025K) pathogens were also included in the screening panel. The AHDRCC strains originated from the Zoetis BRD/SRD surveillance program and refer to the Animal Health Development and Research Culture Collection. In addition, the screen assessed S. aureus (29213 ATCC) as a representative Gram-positive isolate, E.faecalis (19433 ATCC) as a commensal gram-positive gastrointestinal bacterium and E. coli (100, 3110 and 25922 (ATCC)) for the evaluation of efflux potential. The screening panel BRD pathogens were assessed in determining antibacterial activity of the Formula (1) compounds.
All relevant BRD pathogens were initially screened at a top concentration of 64 μg/mL of a Formula (1) compound in an eleven-point dilution series. […] If an Example was purified further, the MICs moved […] essentially two dilutions across all strains tested in the screening panel.
In-Vitro MIC Model Compounds were analyzed for antibacterial activity against a panel of animal health specific gram-positive and gram-negative clinical strains by diluting compounds in DMSO to an appropriate stock concentration to determine the Minimal Inhibitory Concentration (MIC) via a semi-automated broth micro-dilution method (CLSI reference method) with QC strains and anti-microbial agent(s). Specifically, bacteria were grown overnight on TSA w/5% sheep blood agar plates and diluted in saline buffer to a McFarland Standard 0.5, then further diluted in cation-ion adjusted Mueller Hinton Broth to a final concentration of approximately 5×10^5 CFU/mL. 100 μL of inoculated media was added to 96-well plate(s) with 3 μL of serially diluted compound in each row. Depending on strain (see CLSI reference method), bacteria were incubated 18-22 hours at 35-37° C. in ambient air, with 5% CO2 or anaerobically (up to 48 hours).

[3] = tested on: natural bovine respiratory disease (BRD); experiment: Natural bovine respiratory disease study, treatment failure; assay type: in vivo, beef calves; conditions: dosed on arrival to the feedlot, 14-day observation
Method: The primary clinical endpoint for efficacy was treatment failure/success over a 14-day observation period. Clinically normal beef calves (150-200 kg) at moderate risk for BRD were dosed on arrival to the feedlot. Animals (N=114/group) received saline (T01), 5 mg/kg M9 (T02) or 10 mg/kg M9 (T03); or Zactran (T04).

**Q.** Which results are given for `CCCNC[C@]1(O)[C@H](C)O[C@@H](O[C@H]2[C@H](C)[C@@H](O[C@@H]3O[C@H](C)C[C@H](NC)[C@H]3O)[C@](C)(O)C[C@@H](C)CN[C@H](C)[C@@H](O)[C@](C)(O)[C@@H](CC)OC(=O)[C@@H]2C)C[C@@]1(C)OC` [Example M9, (2R,3S,4R,5R,8R,10R,11R,12S,13S,14R)-2-ethyl-3,4, 10-trihydroxy-13-(((2R,4R,5S,6S)-5-hydroxy-4-methoxy-4,6-dimethyl-5-((propylamino)methyl)-tetrahydro-2H-pyran-2-yl)oxy)-11-(((2S,3R,4S,6R)-3-hydroxy-6-methyl-4-(methylamino)tetrahydro-2H-pyran-2-yl)oxy)-3,5,8,10,12,14-hexamethyl-1-oxa-6-azacyclopentadecan-15-one]?
**A.** IL-6 levels [1]: significantly reduced IL-6 levels; MIC Range [2]: 8 to 64 µg/mL; Percent failure ([3]; 5 mg/kg): 19.3%; Percent failure ([3]; 10 mg/kg): 8.8%
